The source of these data is ChEMBL document CHEMBL5113506, “Discovery of novel human lactate dehydrogenase inhibitors: Structure-based virtual screening studies and biological assessment” (Eur J Med Chem, 2022).

Usually Ki stands for the dissociation constant of the complex between target and ligand, obtained from inhibition or displacement. A low value points to higher affinity. As a reminder, the IC50 is the point on the concentration scale where inhibition reaches its midpoint.

The source made the active and inactive calls. The rule behind the calls is not given here.

Assay [1] addresses T1, L-lactate dehydrogenase A chain (Homo sapiens, UniProt P00338). Put plainly: Inhibition of LDHA in human liver using pyruvate as substrate incubated for 3 mins by fluorescence assay. It counts as tissue-based.
The target in assay [2] is L-lactate dehydrogenase B chain (Mus musculus, UniProt P16125). Description: Inhibition of mouse LDHB using sodium pyruvate as substrate.
Assay [3] in a line: Antiproliferation activity against human Med1 assessed as reduction in cell viability after 24 hrs by Trypan blue exclusion assay. It counts as functional, cell-based. The conditions noted are these: Medulloblastoma cell.
Assay [4] relates to Medulloblastoma cell. Description: Antiproliferation activity against human Med1 assessed as reduction in cell viability at […] after 24 hrs by Trypan blue exclusion assay. Format: functional, cell-based.
Assay [5] has as its system Medulloblastoma cell. Put plainly: Antiproliferation activity against human Med1 assessed as reduction in cell viability at 1 mM after 24 hrs by Trypan blue exclusion assay. Format: functional, cell-based.
In assay [6] the test system is HCT-116. Description: Induction of apoptosis in human HCT-116 cells assessed as increase in cleaved PARP protein expression level after 48 hrs in presence of rotenone by Western blot analysis. Format: functional, cell-based. In general terms: In western blotting, separated proteins are transferred to a membrane and probed.
In assay [7] the test system is HCT-116. Put plainly: Induction of […] in human HCT-116 cells assessed as increase in LC3B-I lipidation protein expression level after 48 hrs in presence of rotenone by Western blot analysis. It counts as functional, cell-based.
In assay [8] the test system is HCT-116. Put plainly: Antiproliferation activity against human HCT-116 cells assessed as reduction in cell viability after 24 hrs by Trypan blue exclusion assay. It counts as functional, cell-based.
Assay [9] deals with T1, L-lactate dehydrogenase A chain. Description: Inhibition of LDHA in human Med1 cells using pyruvate as substrate incubated 10 mins by spectrophotometric analysis. Format: cell-based, Medulloblastoma cell.
Assay [10] has as its system Medulloblastoma cell. Put plainly: Antiproliferation activity against human Med1 assessed as reduction in cell viability at 100 uM after 24 hrs by Trypan blue exclusion assay. Format: functional, cell-based.
The test system of assay [11] is HCT-116. Put plainly: Antiproliferation activity against human HCT-116 cells assessed as reduction in cell viability after 24 hrs in presence of rotenone by Trypan blue exclusion assay. Format: functional, cell-based.
For assay [12], the system named is HCT-116. Description: Induction of autophagy in human HCT-116 cells assessed as increase in LC3B-I lipidation protein expression level at 80 to 320 uM after 48 hrs by Western blot analysis. Format: functional, cell-based. The settings on record: dose 80-320 µM.
For assay [13], the system named is HCT-116. Put plainly: Induction of apoptosis in human HCT-116 cells assessed as increase in cleaved PARP protein expression level at 80 to 320 uM after 48 hrs by Western blot analysis. Format: functional, cell-based. The settings on record: dose 80-320 µM.
In assay [14] the test system is A549. Description: Antiproliferation activity against human A549 cells assessed as reduction in cell viability after 24 hrs by Trypan blue exclusion assay. Format: functional, cell-based.
Assay [15] concerns PANC-1. Put plainly: Antiproliferation activity against human PANC-1 cells assessed as reduction in cell viability after 24 hrs by Trypan blue exclusion assay. It counts as functional, cell-based.
Assay [16] deals with T1, L-lactate dehydrogenase A chain. Put plainly: Inhibition of LDHA in human Med1 cells assessed as reduction in lactate production by measuring ECAR using pyruvate as substrate incubated 6 hrs by seahorse extracellular flux analysis. The conditions noted are these: Medulloblastoma cell. Format: cell-based.
In assay [17] the test system is SW-620. Description: Antiproliferation activity against human SW-620 cells assessed as reduction in cell viability after 24 hrs by Trypan blue exclusion assay. It counts as functional, cell-based.

L-lactate dehydrogenase B chain, sequence (P16125 whole entry): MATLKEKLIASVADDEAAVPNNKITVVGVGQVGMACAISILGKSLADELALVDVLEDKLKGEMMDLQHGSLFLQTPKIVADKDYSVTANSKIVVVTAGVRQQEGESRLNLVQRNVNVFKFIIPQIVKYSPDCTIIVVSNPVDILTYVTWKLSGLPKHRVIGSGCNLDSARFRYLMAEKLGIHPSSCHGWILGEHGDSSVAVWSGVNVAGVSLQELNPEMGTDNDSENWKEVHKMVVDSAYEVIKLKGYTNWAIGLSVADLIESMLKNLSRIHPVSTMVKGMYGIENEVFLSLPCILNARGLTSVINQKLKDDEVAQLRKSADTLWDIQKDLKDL

Regarding `O=c1cc2c(=O)oc3cc(O)c(O)oc3c2c(O)c1O`, the affinity in assay [1], expressed as Ki, was 5460 nM.

For the compound `Cc1cc2c(C(C)C)c(O)c(O)c(C=O)c2c(O)c1-c1c(C)cc2c(C(C)C)c(O)c(O)c(C=O)c2c1O` [GOSSYPOL], in [2], affinity was put at a Ki of 1400 nM.

For `NC(=O)C(=O)O` [SODIUM OXAMATE], the IC50 in assay [3] is 15900 nM.

For `Cn1nc(C2CCN(C(=O)NCc3ccccc3)CC2)n(-c2ccccc2)c1=O`, the IC50 in assay [3] was determined as 1510 nM. Further, the outcome in assay [4] and in [5] was Active.

For the compound `O=c1cc2c(nn1CC1CCN(C3=NS(=O)(=O)c4ccccc43)CC1)CCC2`, the result in assay [6], in assay [7], in assay [8], in assay [10], in [11] and in [12] was Active. Further, the outcome in assay [13], in assay [4], in [14], in assay [15], in [17] and in [5] was Active. The IC50 is 12 nM in assay [9] and 81.8 nM in assay [3]. The inhibition result in assay [16] is “Active”.

`O=C(O)c1nnn(-c2ccc(F)cc2F)c1-c1ccccc1`: the 50% inhibitory concentration (IC50) in assay [3] came to 1300 nM. For the same compound, the outcome in assay [4] and in assay [5] was Active.

With `CSc1cccc(-n2c(=O)n(Cc3ccc(C(=O)O)cc3)c(=O)c3[nH]cnc32)c1`, the IC50 in assay [3] came to 8310 nM. In addition, the outcome in assay [4] was Active.

For the compound `Cc1ccc(-c2c(C)c(C(=O)O)nn2-c2ccc(Cl)c(Cl)c2)cc1C`, the IC50 in assay [3] is 1140 nM. Further, the outcome in [4] and in assay [5] was Active.

As for `O=C(NCc1nn(C2CCCC2)c(=O)c2ccccc12)Nc1ccccc1F`, the IC50 in assay [3] turned out to be 8460 nM. In addition, the result in [4] and in [5] was Active.

In the case of `Cc1nn(-c2ncc(NC(=O)C3(c4ccccc4)CCOCC3)cn2)c(C)c1C`, the outcome in assay [10], in assay [4] and in assay [5] was Active. In addition, in [3], the IC50 worked out at 29.8 nM.

As for `Cc1cc(C(=O)N(CCc2cccs2)C2CCOCC2)no1`, in assay [3], the concentration for half-maximal inhibition (IC50) turned out to be 1160 nM. The outcome in assay [4] and in assay [5] was Active.

Take `CSc1sc(C(=O)O)cc1-c1nc(-c2ccc(C)cc2)cs1`: the 50% inhibitory concentration (IC50) in [3] was 964 nM. The outcome in [4] and in assay [5] was Active.
